Measurements: ChEMBL document CHEMBL2331498, “Mycoleptodiscins A and B, cytotoxic alkaloids from the endophytic fungus Mycoleptodiscus sp. F0194” (J Nat Prod, 2013)

Columns and labels:
[1] = Cytotoxicity against human H522-T1 cells after 96 hrs by CellTiter-Glo assay; assay type: functional, cell-based; settings: H522-T1, 96 h
IMR-90 = assay: Cytotoxicity against human IMR90 cells after 96 hrs by CellTiter-Glo assay; assay type: cell-based; settings: IMR-90, 96 h
[2] = Cytotoxicity against human H460 cells after 96 hrs by CellTiter-Glo assay; assay type: functional, cell-based; settings: NCI-H460, 96 h
PC-3 = assay: Cytotoxicity against human PC3 cells after 96 hrs by CellTiter-Glo assay; assay type: functional, cell-based; settings: PC-3, 96 h
A2058 = assay: Cytotoxicity against human A2058 cells after 96 hrs by CellTiter-Glo assay; assay type: functional, cell-based; settings: A2058, 96 h

Compound | IC50 [1] [nM] | IC50 (IMR-90) [nM] | IC50 [2] [nM] | IC50 (PC-3) [nM] | IC50 (A2058) [nM]
CC1(C)CCC[C@@]2(C)C1CC[C@@]1(C)C3=CC(=O)C(=O)c4[nH]cc(c43)C[C@@]12O (some centres undefined) [MYCOLEPTODISCIN B] | 630 | 410 | 660 | 600 | 780
N#CC(=O)C#N [CARBONYL CYANIDE] |  | 5000 |  |  | 
CC[C@]1(O)C[C@@H]2CN(CCc3c([nH]c4ccccc34)[C@@](C(=O)OC)(c3cc4c(cc3OC)N(C)[C@H]3[C@@](O)(C(=O)OC)[C@H](OC(C)=O)[C@]5(CC)C=CCN6CC[C@]43[C@@H]65)C2)C1 [VINBLASTINE] | 9 |  | 2 | 5 | 
